According to article PMC4749168, “Potentiation of ΔF508- and G551D-CFTR-Mediated Cl^- Current by Novel Hydroxypyrazolines” (PLoS ONE, 2016):
Values joined by “and” are separate entries in the source; they are usually repeats but may differ in a detail not shown here. Identical values can stand only once.

Columns and labels:
Format in all cases: cell-based
ΔF508-CFTR [1] = molecular target: T1, ΔF508-CFTR (Homo sapiens, UniProt P13569, DEL508-508); experiment: Halide-sensitive YFP microplate reader assay of CFTR potentiation, ΔF508-CFTR; set-up: expressed in transfected cells; host or cells: Fisher rat thyroid (FRT) cells, co-expressing halide sensor YFP-H148Q/I152L; provided by Dr. Alan Verkman; conditions: FRT cells rescued at 27°C, 10 μM forskolin
Experimental: FRT cells expressing wild type- or ΔF508-CFTR with the halide sensor YFP-H148Q/I152L were plated in 96-well black-walled microplates (Corning Inc., Corning, NY) at a density of 2 x10^4cells per well. FRT-WT-CFTR-YFP cells were incubated for 48 h at 37°C, and FRT-ΔF508-CFTR-YFP cells were incubated for 24 h at 27°C after 24 h incubation at 37°C to rescue ΔF508-CFTR localization. Assays were done using FLUO star Omega microplate reader (BMG Labtech, Ortenberg, Germany) and MARS Data Analysis Software (BMG Labtech). Each well of a 96-well plate was washed 3 times in PBS (200 μL/wash). 100 μL PBS was added to each well. Forskolin (0.1 and 10 μM for WT- and ΔF508-CFTR, respectively) and test compounds (1 μL) were added to each well. After 10 min, 96-well plates were transferred to the microplate reader preheated to 37°C for fluorescence assay. Each well was assayed individually for CFTR-mediated I^- influx by recording fluorescence continuously (200 ms per point) for 2 s (baseline), then 100 μL of 140 mM I^- solution was added at 2 s and then YFP fluorescence was recorded for 14 s. Initial iodide influx rate was determined from the initial slope of fluorescence decrease, by nonlinear regression, following infusion of iodide.

CFTR = molecular target: T2, CFTR (Homo sapiens, UniProt P13569); experiment: Short-circuit current in primary cultures of normal human nasal epithelial cells; conditions: 0.5 μM forskolin, amiloride pretreatment
T2 construct: endogenous in cells; host or cells: primary cultures of normal human nasal epithelial cells (provided by Dr. Jaeyoung Choi), passage 2, air-liquid interface
Experimental: (§1) Snapwell inserts containing CFTR-expressing FRT and primary culture of human nasal epithelial cells were mounted in Ussing chambers (Physiologic Instruments, San Diego, CA). Forskolin, genistein, CP7q and CFTRinh-172 were added to the apical and basolateral bath solution. For FRT cells, the apical bath was filled with a half-Cl^- solution and the basolateral bath was filled with HCO3^—buffered solution, and the basolateral membrane was permeabilized with 250 μg/mL amphotericin B. For primary cultures of human nasal epithelial cells, symmetrical HCO3^—buffered solutions were used and ENaC was inhibited by pre-treatment with amiloride (100 μM). All cells were bathed for a 20 min stabilization period and aerated with 95% O2 / 5% CO2 at 37°C. Apical membrane current and short-circuit current were measured with an EVC4000 Multi-Channel V/I Clamp (World Precision Instruments, Sarasota, FL) and recorded using PowerLab 4/35 (AD Instruments, Castle Hill, Australia). Data were collected and analyzed with ADInstruments acquisition software Labchart Pro 7 software. The sampling rate was 4 Hz.

WT-CFTR [2] = molecular target: T3, WT-CFTR (Homo sapiens, UniProt P13569); experiment: Whole-cell patch-clamp in FRT cells expressing WT-CFTR
T3 construct: expressed in transfected cells; host or cells: Fisher rat thyroid (FRT) cells, co-expressing halide sensor YFP-H148Q/I152L; provided by Dr. Alan Verkman
Experimental: Whole-cell patch-clamp recordings were performed on WT- or ΔF508-CFTR-expressing FRT cells. The bath solution contained (in mM): 140 NMDG-Cl, 1 CaCl2, 1 MgCl2, 10 glucose and 10 HEPES (pH 7.4). The pipette solution contained (in mM): 130 CsCl, 0.5 EGTA, 1 MgCl2, 1 Tris-ATP, and 10 HEPES (pH 7.2). Pipettes were pulled from borosilicate glass and had resistances of 3–5 MΩ after fire polishing. Seal resistances were between 3 and 10 GΩ. After establishing the whole-cell configuration, CFTR was activated by forskolin and/or CP7q. Whole-cell currents were elicited by applying hyperpolarizing and depolarizing voltage pulses from a holding potential of 0 mV to potentials between -80 mV and +80 mV in steps of 20 mV. Recordings were made at room temperature using an Axopatch-200B (Axon Instruments). Currents were digitized and analyzed using a Digidata 1440A converter (Axon Instruments), and pCLAMP 10.2 software (Molecular Devices, Sunnyvale, CA). Currents were low-pass filtered at 1 kHz and sampled at 5 kHz

ΔF508-CFTR [3] = molecular target: T1, ΔF508-CFTR; experiment: YFP quenching assay of VX-809-mediated rescue in A549 cells expressing ΔF508-CFTR; set-up: expressed in transfected cells; host or cells: Fisher rat thyroid (FRT) cells, co-expressing halide sensor YFP-H148Q/I152L; provided by Dr. Alan Verkman; conditions: 48 h, combined with 5 μM VX-809, 10 μM CP7q or 5 μM VX-770, vs VX-809 alone
Experimental: Fisher rat thyroid (FRT) cells expressing human wild type-, ΔF508- and G551D-CFTR with a halide sensor YFP-H148Q/I152L were generously provided by Dr. Alan Verkman (University of California, San Francisco) and grown in F-12 Modified Coon´s medium supplemented with 10% FBS, 2 mM glutamine, 100 units/ml penicillin and 100 μg/ml streptomycin [30]. A549 cells were obtained from Korean Cell Line Bank (Seoul, Korea) and the cells were stably transfected with human ΔF508-CFTR and the halide sensor YFP-H148Q/I152L/F46L, and maintained in RPMI-1640 medium containing 10% fetal bovine serum (FBS), 100 units/ml penicillin and 100 μg/ml streptomycin. […]
FRT cells expressing wild type- or ΔF508-CFTR with the halide sensor YFP-H148Q/I152L were plated in 96-well black-walled microplates (Corning Inc., Corning, NY) at a density of 2 x10^4cells per well. […] Assays were done using FLUO star Omega microplate reader (BMG Labtech, Ortenberg, Germany) and MARS Data Analysis Software (BMG Labtech). […] After 10 min, 96-well plates were transferred to the microplate reader preheated to 37°C for fluorescence assay. Each well was assayed individually for CFTR-mediated I^- influx by recording fluorescence continuously (200 ms per point) for 2 s (baseline), then 100 μL of 140 mM I^- solution was added at 2 s and then YFP fluorescence was recorded for 14 s. […]

WT-CFTR [4] = molecular target: T3, WT-CFTR; experiment: Apical membrane current (Ussing chamber) in FRT cells expressing WT-CFTR
Experimental: as §1

T1 sequence (P13569 with tags, fused parts or gaps DEL508-508): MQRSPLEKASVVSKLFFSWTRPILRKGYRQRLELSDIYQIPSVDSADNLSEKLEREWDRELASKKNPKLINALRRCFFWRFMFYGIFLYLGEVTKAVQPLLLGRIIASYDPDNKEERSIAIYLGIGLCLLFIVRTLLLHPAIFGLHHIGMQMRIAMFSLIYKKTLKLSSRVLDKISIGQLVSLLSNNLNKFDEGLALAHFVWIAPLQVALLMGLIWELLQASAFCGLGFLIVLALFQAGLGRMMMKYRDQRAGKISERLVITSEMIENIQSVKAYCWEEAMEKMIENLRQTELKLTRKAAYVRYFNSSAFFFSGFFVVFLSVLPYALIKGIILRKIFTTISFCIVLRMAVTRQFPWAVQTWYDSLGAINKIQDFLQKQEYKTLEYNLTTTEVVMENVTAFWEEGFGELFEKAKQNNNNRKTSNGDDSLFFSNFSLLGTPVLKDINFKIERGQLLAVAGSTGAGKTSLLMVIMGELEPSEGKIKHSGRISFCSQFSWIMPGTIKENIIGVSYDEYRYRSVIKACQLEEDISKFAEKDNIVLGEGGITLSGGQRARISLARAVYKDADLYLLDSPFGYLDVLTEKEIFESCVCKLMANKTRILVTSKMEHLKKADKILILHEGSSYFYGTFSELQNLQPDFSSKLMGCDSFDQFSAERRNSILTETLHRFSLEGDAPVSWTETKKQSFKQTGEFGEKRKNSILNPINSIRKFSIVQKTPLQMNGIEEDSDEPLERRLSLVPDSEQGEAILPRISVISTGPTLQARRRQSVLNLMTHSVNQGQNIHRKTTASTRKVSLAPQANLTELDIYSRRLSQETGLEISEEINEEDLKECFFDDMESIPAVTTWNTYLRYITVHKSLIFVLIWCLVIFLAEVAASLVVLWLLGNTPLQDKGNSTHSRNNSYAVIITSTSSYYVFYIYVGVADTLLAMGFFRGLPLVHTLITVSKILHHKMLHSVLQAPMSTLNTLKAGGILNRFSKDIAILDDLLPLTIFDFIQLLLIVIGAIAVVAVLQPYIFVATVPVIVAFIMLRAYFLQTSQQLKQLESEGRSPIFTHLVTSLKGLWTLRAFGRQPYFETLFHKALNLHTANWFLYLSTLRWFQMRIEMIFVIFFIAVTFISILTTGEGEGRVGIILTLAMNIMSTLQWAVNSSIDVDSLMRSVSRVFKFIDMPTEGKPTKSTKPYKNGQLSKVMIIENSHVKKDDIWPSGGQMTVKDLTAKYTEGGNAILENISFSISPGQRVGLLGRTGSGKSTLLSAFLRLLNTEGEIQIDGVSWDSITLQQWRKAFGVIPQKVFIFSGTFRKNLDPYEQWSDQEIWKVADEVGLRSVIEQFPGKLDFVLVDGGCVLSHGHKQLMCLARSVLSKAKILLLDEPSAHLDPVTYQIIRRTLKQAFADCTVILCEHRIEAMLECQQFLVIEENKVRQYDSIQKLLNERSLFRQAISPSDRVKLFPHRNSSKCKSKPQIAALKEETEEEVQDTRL
T2 sequence (P13569 whole entry): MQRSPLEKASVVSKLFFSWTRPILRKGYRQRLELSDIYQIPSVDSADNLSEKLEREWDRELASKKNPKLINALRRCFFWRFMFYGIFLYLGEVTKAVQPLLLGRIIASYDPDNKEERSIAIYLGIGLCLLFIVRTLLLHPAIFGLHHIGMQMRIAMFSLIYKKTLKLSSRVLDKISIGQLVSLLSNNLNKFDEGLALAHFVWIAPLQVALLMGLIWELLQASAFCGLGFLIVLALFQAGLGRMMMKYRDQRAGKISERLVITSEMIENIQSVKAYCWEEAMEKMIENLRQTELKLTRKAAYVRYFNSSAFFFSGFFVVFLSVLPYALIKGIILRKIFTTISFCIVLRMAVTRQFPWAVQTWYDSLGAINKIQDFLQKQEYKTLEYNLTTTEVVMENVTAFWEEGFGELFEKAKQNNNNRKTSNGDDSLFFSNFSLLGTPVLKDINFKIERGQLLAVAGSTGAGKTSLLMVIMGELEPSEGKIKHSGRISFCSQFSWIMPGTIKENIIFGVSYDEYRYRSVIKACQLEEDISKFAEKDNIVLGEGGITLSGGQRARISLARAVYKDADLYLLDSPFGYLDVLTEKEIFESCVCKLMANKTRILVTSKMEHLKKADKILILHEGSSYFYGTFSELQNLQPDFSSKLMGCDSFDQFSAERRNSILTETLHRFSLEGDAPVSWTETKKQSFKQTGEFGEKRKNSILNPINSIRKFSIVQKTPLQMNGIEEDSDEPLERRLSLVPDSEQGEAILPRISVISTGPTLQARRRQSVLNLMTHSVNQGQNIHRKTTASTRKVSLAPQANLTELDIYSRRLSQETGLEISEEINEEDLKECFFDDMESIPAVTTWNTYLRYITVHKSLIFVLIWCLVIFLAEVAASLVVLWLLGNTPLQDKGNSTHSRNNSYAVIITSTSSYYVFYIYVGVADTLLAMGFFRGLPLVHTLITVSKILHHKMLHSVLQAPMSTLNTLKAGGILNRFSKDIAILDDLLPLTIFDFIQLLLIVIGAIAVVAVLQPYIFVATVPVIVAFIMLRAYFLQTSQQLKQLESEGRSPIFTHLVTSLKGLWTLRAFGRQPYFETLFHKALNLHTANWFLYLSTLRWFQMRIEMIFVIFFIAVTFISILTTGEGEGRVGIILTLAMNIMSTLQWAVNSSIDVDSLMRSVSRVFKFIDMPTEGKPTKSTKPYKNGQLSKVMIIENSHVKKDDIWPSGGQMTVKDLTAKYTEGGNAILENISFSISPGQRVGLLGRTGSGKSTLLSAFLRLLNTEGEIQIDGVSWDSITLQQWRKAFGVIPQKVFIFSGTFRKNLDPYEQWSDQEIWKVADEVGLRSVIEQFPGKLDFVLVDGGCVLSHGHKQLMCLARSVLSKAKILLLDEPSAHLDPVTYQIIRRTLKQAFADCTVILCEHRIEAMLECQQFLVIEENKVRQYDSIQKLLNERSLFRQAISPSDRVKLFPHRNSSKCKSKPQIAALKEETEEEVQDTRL

## COc1ccc(C2CC(c3ccc(O)cc3O)=NN2c2ccc(S(N)(=O)=O)cc2)c(OC)c1 (stereo not shown) [Compound 7q, 4-[3-(2,4-dihydroxyphenyl)-5-(2,4-dimethoxyphenyl)-4,5-dihydro-1H-pyrazol-1-yl] benzenesulfonamide]
ΔF508-CFTR [1]
  EC50: 4.8 µM
CFTR
  Potentiation of CFTR Cl- current (short-circuit current): remarkably potentiated
WT-CFTR [2]; 0.1 μM forskolin, 10 μM CP7q
  Potentiation of whole-cell WT-CFTR Cl- current: strongly potentiated
WT-CFTR [2]; whole cell patch-clamp, no forskolin
  Activation of WT-CFTR without forskolin stimulation: did not activate
ΔF508-CFTR [3]
  Effect on functional rescue of ΔF508-CFTR by VX-809 (iodide influx): significantly increased
WT-CFTR [4]; FRT-WT-CFTR cells, 0.1 μM forskolin
  EC50: 880 nM and ~880 nM
WT-CFTR [4]; WT-CFTR stimulated by 0.1 μM forskolin
  Maximum efficacy of CFTR potentiation compared with genistein: significantly higher than that of genistein
